Reference: patent publication US8916605B2, “Compounds and methods for treating cancer and viral infections” (priority 2009, dated 2014)

Key:
[1] = tested on: SH-SY5Y neuroblastoma cells; assay: MTT (CIMA) cell proliferation assay, acute and chronic exposure (Example 3); details: SH-SY5Y
Experimental: (§5) Compound preparation: Stock solutions of test compounds were prepared in dimethylsulfoxide (DMSO) at 250 mg/ml. Working concentrations of 10 mg/ml were subsequently prepared from the stock solution and stored in 50 μl aliquots at −20° C. until used.
(§6) Cells and cell culture: Proof-of-principle studies in this example focused on two human brain cancer cell lines, namely SH-SY5Y neuroblastoma cells and U373 astroglioma cells. […] Both cells were maintained in (50:50) F12:DMEM medium supplemented with 10% fetal calf serum (FCS) and antibiotics in a humidified, 5% CO2 environment. Cells were passaged as required by trypsinization.
(§7) Assays conditions: The effects of the test compounds were assessed following acute and chronic exposure conditions. […] The test compounds were evaluated over a broad range of concentrations (0, 0.5, 1, 5, 10, 50, 100 and 250 μg/ml) with cells treated with equivalent concentrations of vehicle (DMSO) serving as controls.
(§8) Cell proliferation assay: Cell proliferation was assessed using a standard colorimetric indicator of metabolic activity (CIMA) assay. In this assay, the reduction of yellow tetrazolium salt (MTT) to purple formazan by mitochondrial reductase enzymes in viable cells was evaluated as a measure of metabolic activity to determine the extent of cell proliferation within a culture. The resulting colour change that conferred a change in absorbance was quantified using a spectrophotometer (λ=500-600). Samples were diluted as required to ensure that values obtained with the MTT assay fell within the linear range of the protocol. Qualitative microscopic evaluation of treated cultures was used to determine if overt cytotoxicity was present and to supplement the quantitative CIMA data.

[2] = tested on: SH-SY5Y neuroblastoma cells; assay: Long term exposure, tetrazole reduction (CIMA) proliferation assay (Example 6); type: cell-based; details: for AVERAGE (mean absorbance): SHSY5Y
Experimental: (§1) Compound I(a) was termed CMPD A (LI568-026-02).
(§2) Cells were passaged as required by trypsinization.
(§3) Assay conditions: The effects of the test compound were assessed under long term exposure conditions. Cells were propagated as normal in T25 flasks in complete culture media supplemented with comparatively low concentrations of the compound (0, 1 and 5 μg/ml) for 28 days. At various times post-exposure, changes in proliferation rates were assessed using a standard CIMA assay.
(§4) For the current study, cells that have been exposed to the compound were seeded in 96-well plates and proliferation rates measured over 24 and 72 h periods for comparison to that of similarly aged untreated cells.

[3] = tested on: U373 astroglioma cells; assay: as above; type: cell-based
Experimental: as §1, §2, §3, §4

[4] = tested on: all three transformed neuronal cell lines (IMR32, NG108, NSC34); assay: MTT (CIMA) cell proliferation assay (Example 4); details: 72 h post-treatment; 0.5-250 μg/ml
Experimental: as §5
(§9) Cells and cell culture: Three classes of cells were evaluated: 1) neuroblastoma cells, 2) neuroglioma cells, and 3) non-transformed human neurons (see below). All cells were maintained in appropriate culture medium supplemented with 10% fetal calf serum (FCS) and antibiotics in a humidified, 5% CO2 environment. Cells were passaged as required by trypsinization.
(§10) Assay conditions: The effects of the test compounds were assessed following acute and chronic exposure conditions. […] Each compound was evaluated over a broad range of concentrations (0, 0.5, 1, 5, 10, 50, 100 and 250 μg/ml) with cells treated with equivalent concentrations of vehicle (DMSO) serving as controls.
(§11) Cell proliferation assay: Cell proliferation was assessed using a standard colorimetric indicator of metabolic activity (CIMA) assay. In this assay, the reduction of yellow tetrazolium salt (MTT) to purple formazan by mitochondrial reductase enzymes in viable cells was evaluated as a measure of metabolic activity to determine the extent of cell proliferation within a culture. […]

[5] = tested on: Influenza A (strain A/PR/8/34); assay: Anti-influenza cytopathic effect (CPE) assay in MDCK cells, prophylactic regimen (Example 7); type: cell-based; set-up: key to CPE score: 1: Complete monolayer with few gaps or dead cells; 2: Some gaps in the monolayer; dead cells more evident; 3: Increasing number of gaps in the monolayer concurrent with dead cells; 4: Gaps widely distributed throughout the monolayer and of increasing size; 5: Large holes forming as smaller gaps merge; copious dead cells evident; 6: Monolayer integrity lost. Small islands of attached cells amid predominantly dead cells; details: for CPE score: Influenza A, MDCK
[6] = tested on: NSC34 motor neurons; assay: MTT (CIMA) cell proliferation assay (Example 4); details: 72 h post-treatment
Experimental: as §5, §9, §10, §11

[7] = tested on: Influenza B (strain B/Lee/40); assay: Anti-influenza cytopathic effect (CPE) assay in MDCK cells, prophylactic regimen (Example 7); type: cell-based; set-up: key to CPE score: 1: Complete monolayer with few gaps or dead cells; 2: Some gaps in the monolayer; dead cells more evident; 3: Increasing number of gaps in the monolayer concurrent with dead cells; 4: Gaps widely distributed throughout the monolayer and of increasing size; 5: Large holes forming as smaller gaps merge; copious dead cells evident; 6: Monolayer integrity lost. Small islands of attached cells amid predominantly dead cells; details: for CPE score: Influenza B, MDCK, virus + DMSO control 4
[8] = tested on: U373 astroglioma cells; assay: MTT (CIMA) cell proliferation assay, acute and chronic exposure (Example 3)
Experimental: as §5, §6, §7, §8

[9] = tested on: MDCK cells; assay: Cytotoxicity assay (MTT/CIMA) in MDCK cells (Example 7)
[10] = both acute and chronic regimens

## O=CCCCN1C(=O)c2ccccc2C1=O [Compound I(a), 4-(1,3-dioxo-1,3-dihydro-2H-isoindol-2-yl)butanal]
[1]; acute treatment (24 h), 0.25 mg/ml
  decrease in MTT activity: approximately 30%
[1]; acute treatment (24 h), other concentrations evaluated (below 0.25 mg/ml)
  change in MTT activity: No significant change in MTT activity
[1]; [10]
  LD50: exceeds 0.25 mg/ml
[1]; chronic treatment (72 h), 50 μg/ml
  decrease in MTT activity: 25%
[1]; chronic treatment (72 h), 100 μg/ml
  decrease in MTT activity: 25%
[1]; chronic treatment (72 h), 250 μg/ml
  decrease in MTT activity: 25%
[2]; SH-SY5Y, long term exposure up to 28 days, 1 and 5 μg/ml
  average decrease in activity: approximately 20%
[2]; 14 d incubation with 1 μg/ml, 24 h, control 0 μg/ml 0.492
  AVERAGE (mean absorbance): 0.508
[2]; 14 d incubation with 5 μg/ml, 24 h, control 0 μg/ml 0.492
  AVERAGE (mean absorbance): 0.388
[2]; 21 d incubation with 1 μg/ml, 24 h, control 0 μg/ml 0.307
  AVERAGE (mean absorbance): 0.311
[2]; 21 d incubation with 1 μg/ml, 72 h, control 0 μg/ml 0.300
  AVERAGE (mean absorbance): 0.268
[2]; 21 d incubation with 5 μg/ml, 24 h, control 0 μg/ml 0.307
  AVERAGE (mean absorbance): 0.277
[2]; 21 d incubation with 5 μg/ml, 72 h, control 0 μg/ml 0.300
  AVERAGE (mean absorbance): 0.269
[2]; 28 d incubation with 1 μg/ml, 24 h, control 0 μg/ml 0.601
  AVERAGE (mean absorbance): 0.597
[2]; 28 d incubation with 1 μg/ml, 72 h, control 0 μg/ml 0.489
  AVERAGE (mean absorbance): 0.389
[2]; 28 d incubation with 5 μg/ml, 24 h, control 0 μg/ml 0.601
  AVERAGE (mean absorbance): 0.531
[2]; 28 d incubation with 5 μg/ml, 72 h, control 0 μg/ml 0.489
  AVERAGE (mean absorbance): 0.423
[3]; 14 d incubation with 1 μg/ml, 24 h, control 0 μg/ml 0.569
  AVERAGE (mean absorbance): 0.446
[3]; 14 d incubation with 5 μg/ml, 24 h, control 0 μg/ml 0.569
  AVERAGE (mean absorbance): 0.437
[3]; 21 d incubation with 1 μg/ml, 24 h, control 0 μg/ml 0.617
  AVERAGE (mean absorbance): 0.575
[3]; 21 d incubation with 1 μg/ml, 72 h, control 0 μg/ml 0.547
  AVERAGE (mean absorbance): 0.502
[3]; 21 d incubation with 5 μg/ml, 24 h, control 0 μg/ml 0.617
  AVERAGE (mean absorbance): 0.539
[3]; 21 d incubation with 5 μg/ml, 72 h, control 0 μg/ml 0.547
  AVERAGE (mean absorbance): 0.478
[3]; 28 d incubation with 1 μg/ml, 24 h, control 0 μg/ml 0.567
  AVERAGE (mean absorbance): 0.510
[3]; 28 d incubation with 1 μg/ml, 72 h, control 0 μg/ml 0.598
  AVERAGE (mean absorbance): 0.507
[3]; 28 d incubation with 5 μg/ml, 24 h, control 0 μg/ml 0.567
  AVERAGE (mean absorbance): 0.461
[3]; 28 d incubation with 5 μg/ml, 72 h, control 0 μg/ml 0.598
  AVERAGE (mean absorbance): 0.514
[3]; long term exposure up to 28 days, 1 and 5 μg/ml
  average decrease in activity: approximately 20%
[4]
  viability/proliferation: dose-dependent decreases in viability/proliferation
[5]; 0.5 μg/ml, virus + DMSO control 3
  CPE score: 1 ^5
[5]; 0.5 μg/ml, virus + DMSO control 4
  CPE score: 4
[5]; 1.0 μg/ml, virus + DMSO control 3
  CPE score: 1
[5]; 1.0 μg/ml, virus + DMSO control 4
  CPE score: 3
[5]; 5.0 μg/ml, virus + DMSO control 3
  CPE score: 1
[5]; 5.0 μg/ml, virus + DMSO control 4
  CPE score: 3
[5]; 10 μg/ml, virus + DMSO control 3
  CPE score: 1
[5]; 10 μg/ml, virus + DMSO control 4
  CPE score: 3
[5]; 25 μg/ml, virus + DMSO control 3
  CPE score: 1
[5]; 25 μg/ml, virus + DMSO control 4
  CPE score: 3
[5]; 50 μg/ml, virus + DMSO control 3
  CPE score: 3
[5]; 50 μg/ml, virus + DMSO control 4
  CPE score: 5
[5]; 100 μg/ml, virus + DMSO control 3
  CPE score: 4
[5]; 100 μg/ml, virus + DMSO control 4
  CPE score: 5
[5]; comparatively lower concentrations
  effect on CPE (summary in words): mild to moderate reduction in CPE
[6]
  LD50: < 0.25 mg/mL
[7]; Influenza B infection
  effect on CPE (summary in words): mild to moderate reduction in CPE
[7]; 24 hpi, 0.5 μg/ml
  CPE score: 3
[7]; 24 hpi, 1.0 μg/ml
  CPE score: 3
[7]; 24 hpi, 5.0 μg/ml
  CPE score: 2
[7]; 24 hpi, 10 μg/ml
  CPE score: 2
[7]; 24 hpi, 25 μg/ml
  CPE score: 4
[7]; 24 hpi, 50 μg/ml
  CPE score: 4
[7]; 24 hpi, 100 μg/ml
  CPE score: 5
[7]; 48 hpi, 0.5 μg/ml
  CPE score: 3
[7]; 48 hpi, 1.0 μg/ml
  CPE score: 3
[7]; 48 hpi, 5.0 μg/ml
  CPE score: 3
[7]; 48 hpi, 10 μg/ml
  CPE score: 3
[7]; 48 hpi, 25 μg/ml
  CPE score: 4
[7]; 48 hpi, 50 μg/ml
  CPE score: 5
[7]; 48 hpi, 100 μg/ml
  CPE score: 6
[8]; acute (24 h) and chronic (72 h) treatment, 0.5-250 μg/ml
  overt cell death / reductions in MTT activity: Neither overt cell death nor significant reductions in MTT activity
[8]; [10]
  LD50: exceeds 0.25 mg/ml
[9]; 24 h exposure, 0.5 μg/ml
  Toxicity (MTT), fold changes relative to vehicle controls: 1.09 fold
[9]; 24 h exposure, 1.0 μg/ml
  Toxicity (MTT), fold changes relative to vehicle controls: 1.24 fold
[9]; 24 h exposure, 5.0 μg/ml
  Toxicity (MTT), fold changes relative to vehicle controls: 1.18 fold
[9]; 24 h exposure, 10 μg/ml
  Toxicity (MTT), fold changes relative to vehicle controls: 1.15 fold
[9]; 24 h exposure, 25 μg/ml
  Toxicity (MTT), fold changes relative to vehicle controls: 1.06 fold
[9]; 24 h exposure, 50 μg/ml
  Toxicity (MTT), fold changes relative to vehicle controls: 1.08 fold
[9]; 24 h exposure, 100 μg/ml
  Toxicity (MTT), fold changes relative to vehicle controls: 0.98 fold
[9]; 72 h exposure, 0.5 μg/ml
  Toxicity (MTT), fold changes relative to vehicle controls: 1.05 fold
[9]; 72 h exposure, 1.0 μg/ml
  Toxicity (MTT), fold changes relative to vehicle controls: 0.99 fold
[9]; 72 h exposure, 5.0 μg/ml
  Toxicity (MTT), fold changes relative to vehicle controls: 1.15 fold
[9]; 72 h exposure, 10 μg/ml
  Toxicity (MTT), fold changes relative to vehicle controls: 1.01 fold
[9]; 72 h exposure, 25 μg/ml
  Toxicity (MTT), fold changes relative to vehicle controls: 0.96 fold
[9]; 72 h exposure, 50 μg/ml, decreases exceeding 25% considered toxic
  Toxicity (MTT), fold changes relative to vehicle controls: 0.71^3 fold
[9]; 72 h exposure, 100 μg/ml, decreases exceeding 25% considered toxic
  Toxicity (MTT), fold changes relative to vehicle controls: 0.56 fold
[9]; higher concentrations (≧25 μg/ml)
  cytotoxicity (summary in words): toxicity associated with the compound itself
